One compound from patent US6395787B1, “Ocular hypotensive lipids” (Allergan Sales, Inc., priority 2000, dated 2002) can be followed below.

Assay [1] has as its target T1, human FP receptor (Homo sapiens, UniProt P43088). The assay is described as follows: Total inositol phosphate accumulation, HEK-293 cells with recombinant human FP receptor. In kind it is cell-based. Also noted: expressed in transfected cells. The conditions noted are these: for % maximal total inositol phosphate accumulation mean χ ± SEM: reference 17-phenyl PGF2α 10^−6 M. On the procedure:
HEK-293 cells were grown in DMEM with 10% fetal bovine serum (FBS), 250 μg ml^−1 G418 (Life Technologies) and 200 μg ml^−1 gentamicin or penicillin/streptomycin. […] For transfection, the cells were grown to 50-60% confluency on 10 cm plates. The plasmid pCEP4 incorporating cDNA inserts for the human FP receptor (20 μg) was added to 500 μl of 250 mM CaCl2. HEPES buffered saline×2 (2×HBSS, 280 mM NaCl, 20 mM HEPES acid, 1.5 mM Na2 HPO4, pH 7.05-7.12) was then added dropwise to a […], with continuous vortexing at room temperature. After 30 min, 9 ml DMEM were added to the mixture. The DNA/DMEM/calcium phosphate mixture was then added to the cells, which had been previously rinsed with 10 ml phosphate buffered saline (PBS). The cells were then incubated for 5 h. at 37° C. in humidified 95% air/5% CO2. The calcium phosphate solution was then removed and the cells were treated with 10% glycerol in DMEM for 2 min. The glycerol solution was then replaced by DMEM with 10% fetal bovine serum (FBS). The cells were incubated overnight and the medium was replaced by DMEM/10% FBS containing 250 μg ml^−1 G418 and penicillin/streptomycin. The following day hygromycin B was added to a final concentration of 200 μg ml^−1.
Receptor-mediated phosphoinositide (PI) hydrolysis was determined by measuring the accumulation of total inositol phosphates (IP) in cells preincubated with ^3H-myoinositol. Stable cell lines of HEK 293 cells expressing human or cat FP receptors were plated in 10 cm dishes (10^6 cells per dish in DMEM with 10% FBS). The following day, the cells were incubated with 18 μCi myo-[2 ^3H] inositol (Amersham; […]) in 6 ml of DMEM with 10% FBS for 24 hours at 37° C. The cells were then rinsed twice with phosphate buffered saline (PBS), incubated for 5 min with 1 ml of trypsin-EDTA, and suspended in 10 ml DMEM containing 25 mM HEPES buffer. Cells were pelleted at 1000 rpm and resuspended in DMEM/25 mM HEPES containing 10 mM LiCl for 10 minutes. Aliquots of 200 μl cell suspension were incubated with 50 μl drug for 30 minutes at 37° C. (duplicate determination), and agonist stimulation was terminated with a 750 μl mixture of chloroform:methanol:4N HCl (100:200:2), followed by addition of 250 μl of chloroform and 0.5 N HCl for extraction of inositol phosphates. A 750 μl volume of the aqueous layer was loaded on columns packed with 0.5 ml of Dowex AG 1-X8 anion-exchange resin (formate form, 100-200 mesh; BioRad) to separate radiolabeled components. The elution procedure consisted of three 3 ml washes with 5 mM inositol, then two elutions with 750 μl of 1.3 M ammonium formate with 0.1 M formic acid. The eluate was mixed with 10 ml Aquasol scintillation fluid (Packard Instrument Co.) and total [^3H] inositol phosphates was determined by a liquid scintillation counter.

In assay [2] the test system is human platelets (DP-, TP- and IP-receptor types). Kind of assay: Human platelet aggregation and inhibition of ADP-induced aggregation. In kind it is cell-based. On the procedure:
Prostanoid activity at the DP-, TP- and IP-receptor types was determined by an ability to cause aggregation (TP-receptor activity) or to inhibit ADP-induced aggregation of human platelets in vitro (DP- and IP-receptor activity). Fresh whole blood was obtained from consenting healthy human volunteers and mixed with acid citrate-dextrose (ACD). The blood was centrifuged at 1000 rpm for 15-20 minutes to obtain platelet rich plasma (PRP). 4.5 μl of prostanoid or vehicle was added to 450 μl of PRP and incubated for 2 minutes at 37° C. in a Payton aggregometer and observed for any aggregatory activity. 2×10^−5 M ADP (final concentration) was then added to induce full aggregation. Inhibition of aggregation was calculated as the percentage difference between aggregation evoked by 2×10^−5 M ADP in the absence and presence of drug. Aggregatory activity was calculated as the percent aggregation induced by the prostanoid relative to the aggregation induced by 2×10^−5 M ADP. Standard aggregatory responses to 2×10^−5 M ADP alone were performed at the beginning and end of each experiment.

Assay [3] addresses T1, human FP receptor. Kind of assay: Radioligand binding competition vs 3H-17-phenyl PGF2α, recombinant human FP receptor. On the set-up: expressed in transfected cells. The following applies: for % specific binding mean χ ± SEM: vs 5nM 3H-17-phenyl PGF2α, n = 3. On the procedure:
Plasma membrane preparations of HEK 293 cells stably transfected with the human or feline FP receptor were obtained as follows. Cells washed with TME buffer were scraped from the bottom of the flasks and homogenized for 30 sec using a Brinkman PT 10/35 polytron. TME buffer was added as necessary to achieve a 40 ml volume in the centrifuge tubes. TME is comprised of 100 mM TRIS base, 20 mM Mg Cl2, 2 m EDTA; physiological pH is achieved by adding 10 N HCl. The cell homogenate was centrifuged at 19,000 rpm for 20 min at 4-6° C. using a Beckman Ti-60 rotor. The pellet was then resuspended in TME buffer to provide a final protein concentration of 1 mg/ml, as determined by Biorad assay. Radioligand binding assays were performed in a 200 μl volume.
Incubations were for 60 min at 25° C. and were terminated by the addition of 4 ml of ice-cold 50 mM TRIS-HCl followed by rapid filtration through Whatman GF/B filters and three additional 4 ml washes in a cell harvester (Brandel).

Structures are written as SMILES.

T1 sequence (P43088 whole entry): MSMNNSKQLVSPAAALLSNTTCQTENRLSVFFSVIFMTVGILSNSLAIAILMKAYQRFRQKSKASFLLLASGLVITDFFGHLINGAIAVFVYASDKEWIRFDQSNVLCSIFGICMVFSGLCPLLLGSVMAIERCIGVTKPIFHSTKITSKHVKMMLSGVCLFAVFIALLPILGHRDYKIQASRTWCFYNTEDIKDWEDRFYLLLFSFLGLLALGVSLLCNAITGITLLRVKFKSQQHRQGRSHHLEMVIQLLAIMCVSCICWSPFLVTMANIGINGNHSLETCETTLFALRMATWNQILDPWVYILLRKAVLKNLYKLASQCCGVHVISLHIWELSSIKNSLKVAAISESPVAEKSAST

Regarding `CCCCC[C@H](O)/C=C/[C@@H]1[C@@H](C/C=C\CCCC(=O)NCCO)[C@@H](O)C[C@H]1O` [PGF2α 1-ethanolamide, (5Z,8α,9α,11α,13E,15S)-9,11,15-trihydroxy-N-(2-hydroxyethyL)prosta-5,13-dien-1-amide], the “% maximal total inositol phosphate accumulation mean χ ± SEM” value on human FP receptor [1] (10^−5 M) turned out to be 85.0 ± 1.9%; at human FP receptor [1] (10^−6 M), 48.4 ± 3.3%; on human FP receptor [1] (10^−7 M), 10.0 ± 1.6%; on human FP receptor [1] (10^−8 M) it was 0.3 ± 0.6%. Further, the EC50 at human FP receptor [1] (HEK-293 cells, recombinant human FP receptor, read-out: E.C.50, total inositol phosphate accumulation) worked out at 1000 nM. The “effect on platelets (aggregation; inhibition of ADP induced aggregation)” value in assay [2] was “No effect”. Besides, the “% specific binding mean χ ± SEM” value came out at 19.7 ± 1.2% on human FP receptor [3] (10^−5 M); 63.7 ± 2.7% on human FP receptor [3] (10^−6 M); 95.9 ± 1.5% at human FP receptor [3] (10^−7 M); 103.3 ± 0.3% at human FP receptor [3] (10^−8 M); 94.7 ± 1.4% at human FP receptor [3] (10^−9 M). Also, the IC50 on human FP receptor [3] (read-out: I.C.50, radioligand binding) is 2020 nM.
